# pKi: −log10 of the molar value. Structures can show the parent of a compound that is named as a salt.
# Tests used:
# [1] = target: GABAa receptor (benzodiazepines (BDZ) receptor); experiment: GABAa receptor (benzodiazepine receptor) binding assay, 3H-RO15-1788 [3H-Flumazenil] displacement in rat cortical tissue; details: 0.5 nM 3H-RO15-1788, 30 min at 4° C., pH 7.4
# benzodiazepine receptor [2] = details: Hunkeler et al., 1981; cited from earlier work
# benzodiazepine receptor [3] = details: in animals and humans; by itself; cited from earlier work
compound,measurement,setting,value
"O=c1[nH]c2ccccc2c2nn(-c3ccccc3)c(=O)n12 [Compound 1, 2-phenyl-5,6-dihydro-5-oxo-[6H]-1,2,4-triazolo[4,3-c]quinazolin-3-one]",pKi,[1],8.23
"O=c1n(-c2ccccc2)nc2n1CNc1ccccc1-2 [Compound 2, 2-phenyl-5,6-dihydro-1,2,4-triazolo[4,3-c]quinazolin-3-one]",pKi,[1],7.92
"O=c1[nH]c2ccccc2c2nn(-c3ccccn3)c(=O)n12 [Compound 5, 2-(2-Pyridyl)-5,6-dihydro-5-oxo-[6H]-1,2,4-triazolo[4,3-c]quinazolin-3-one]",pKi,[1],8.12
"O=c1n(-c2ccccn2)nc2n1CNc1ccccc1-2 [Compound 13, 2-(2-Pyridyl)-5,6-dihydro-1,2,4-triazolo[4,3-c]quinazolin-3-one]",pKi,[1],7.20
"CN(C)Cc1ccc(-n2nc3n(c2=O)CNc2ccccc2-3)cc1 [Compound 21, 2-[4-(N,N-dimethylaminomethyl)phenyl]-5,6-dihydro-1,2,4-triazolo-[4,3-c]quinazolin-3-one hydrochloride]",pKi,[1],7.28
"O=c1[nH]c2ccccc2c2nn(-c3ccccc3)c(=S)n12 [Compound 28, 2-phenyl-5,6-dihydro-5-oxo-6[H]-1,2,4-triazolo[4,3-c]quinazolin-3-thione]",pKi,[1],8.35
"S=c1n(-c2ccccc2)nc2n1CNc1ccccc1-2 [Compound 29, 2-phenyl-5,6-dihydro-1,2,4-triazolo[4,3-c]quinazolin-3-thione]",pKi,[1],6.20
"O=c1[nH]c2c(c3nn(-c4ccccc4)c(=O)n13)CCCC2 [Compound 30, 2-phenyl-5,6-dihydro-5-oxo-[6H]-7,8,9,10-tetrahydro-1,2,4-triazolo[4,3-c]-quinazolin-3-one]",pKi,[1],8.35
"O=c1n(-c2ccccc2)nc2n1CNC1=C2CCCC1 [Compound 31, 2-phenyl-5,6,7,8,9,10-hexahydro-1,2,4-triazolo[4,3-c]-quinazolin-3-one]",pKi,[1],8.10
"imidazo[1,5-a][1,4]benzodiazepine",inhibition of benzodiazepine and beta-carboline binding,benzodiazepine receptor [2],high affinity competitive inhibitor
same,intrinsic pharmacological activity,benzodiazepine receptor [3],little intrinsic pharmacological activity
